Results published in the kinase profiling compilation of Christmann-Franck et al. (2016).

Assays:
Assay in all cases: radiometric filter-binding kinase assay
BRSK1 (human) = BRSK1 (human) (UniProt Q8TDC3)
BTK (human) = BTK (human) (UniProt Q06187); details: compound 1.0 µM
CAMKK2 (human) = CAMKK2 (human) (UniProt Q96RR4)
CDK2 CCNA2 (human) = CDK2 CCNA2 (human) (UniProt P20248+P24941)
CSK (human) = CSK (human) (UniProt P41240)
CaMK1 (human) = CaMK1 (human) (UniProt Q14012)
DYRK2 (human) = DYRK2 (human) (UniProt Q92630)
EPHA2 (human) = EPHA2 (human) (UniProt P29317)
EPHA4 (human) = EPHA4 (human) (UniProt P54764)
EPHB2 (human) = EPHB2 (human) (UniProt P29323)
ERBB4 (human) = ERBB4 (human) (UniProt Q15303)
HIPK3 (human) = HIPK3 (human) (UniProt Q9H422); details: compound 1.0 µM
INSR (human) = INSR (human) (UniProt P06213)
INSRR (human) = INSRR (human) (UniProt P14616)
JAK2 JH1 JH2 (human) = JAK2 JH1 JH2 (human) (UniProt O60674)
LCK (mouse) = details: compound 10.0 µM; accession and sequence are those of the human protein
MAP2K1 (human) = MAP2K1 (human) (UniProt Q02750)
MAPK15 (human) = MAPK15 (human) (UniProt Q8TD08)
MAPKAPK2 (human) = MAPKAPK2 (human) (UniProt P49137)
MARK1 (human) = MARK1 (human) (UniProt Q9P0L2)
MARK2 (human) = MARK2 (human) (UniProt Q7KZI7)
MINK1 (human) = MINK1 (human) (UniProt Q8N4C8)
MKNK1 (human) = MKNK1 (human) (UniProt Q9BUB5)
MST4 (human) = MST4 (human) (UniProt Q9P289)
NEK2 (human) = NEK2 (human) (UniProt P51955)
NEK6 (human) = NEK6 (human) (UniProt Q9HC98)
NUAK1 (human) = NUAK1 (human) (UniProt O60285)
PAK7 (human) = PAK7 (human) (UniProt Q9P286)
PHKG1 (human) = PHKG1 (human) (UniProt Q16816)
PRKAA1 or PRKAA2 (rat) = details: compound 10.0 µM; accession and sequence are those of the human protein
PRKACA (human) = PRKACA (human) (UniProt P17612); details: compound 1.0 µM
PRKCA (human) = PRKCA (human) (UniProt P17252)
RIPK2 (human) = RIPK2 (human) (UniProt O43353)
RPS6KA5 KD1 KD2 (human) = RPS6KA5 KD1 KD2 (human) (UniProt O75582)
SRPK1 (human) = SRPK1 (human) (UniProt Q96SB4)

Sequence of DYRK2 (human) (Q92630 whole entry, looked up): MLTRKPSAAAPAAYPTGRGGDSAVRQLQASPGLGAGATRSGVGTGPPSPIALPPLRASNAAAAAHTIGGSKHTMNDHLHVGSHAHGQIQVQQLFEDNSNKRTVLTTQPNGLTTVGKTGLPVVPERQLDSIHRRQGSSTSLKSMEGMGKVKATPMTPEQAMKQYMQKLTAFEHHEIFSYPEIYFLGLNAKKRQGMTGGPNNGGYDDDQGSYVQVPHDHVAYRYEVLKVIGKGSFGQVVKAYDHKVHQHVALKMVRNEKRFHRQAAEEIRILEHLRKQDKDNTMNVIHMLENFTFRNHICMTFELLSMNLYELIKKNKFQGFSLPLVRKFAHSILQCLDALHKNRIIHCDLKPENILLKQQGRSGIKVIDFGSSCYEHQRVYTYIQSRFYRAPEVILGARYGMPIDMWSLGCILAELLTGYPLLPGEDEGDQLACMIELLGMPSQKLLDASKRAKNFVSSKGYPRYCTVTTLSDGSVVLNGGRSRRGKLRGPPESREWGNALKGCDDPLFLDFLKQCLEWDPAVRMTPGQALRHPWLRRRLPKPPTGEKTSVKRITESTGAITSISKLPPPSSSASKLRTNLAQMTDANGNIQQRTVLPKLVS
Sequence of CSK (human) (P41240 whole entry, looked up): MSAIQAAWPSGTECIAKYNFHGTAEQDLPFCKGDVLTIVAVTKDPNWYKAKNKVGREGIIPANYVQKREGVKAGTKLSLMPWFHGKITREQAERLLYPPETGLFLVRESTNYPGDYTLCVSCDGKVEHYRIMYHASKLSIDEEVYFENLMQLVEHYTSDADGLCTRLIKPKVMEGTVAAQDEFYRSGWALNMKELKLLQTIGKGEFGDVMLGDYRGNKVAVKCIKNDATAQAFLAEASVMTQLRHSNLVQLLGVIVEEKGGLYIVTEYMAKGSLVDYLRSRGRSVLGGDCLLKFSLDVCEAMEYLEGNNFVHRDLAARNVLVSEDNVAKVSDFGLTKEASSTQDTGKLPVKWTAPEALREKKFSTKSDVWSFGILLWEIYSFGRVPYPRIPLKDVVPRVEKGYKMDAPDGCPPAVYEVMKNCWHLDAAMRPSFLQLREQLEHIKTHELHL
Sequence of NEK6 (human) (Q9HC98 whole entry, looked up): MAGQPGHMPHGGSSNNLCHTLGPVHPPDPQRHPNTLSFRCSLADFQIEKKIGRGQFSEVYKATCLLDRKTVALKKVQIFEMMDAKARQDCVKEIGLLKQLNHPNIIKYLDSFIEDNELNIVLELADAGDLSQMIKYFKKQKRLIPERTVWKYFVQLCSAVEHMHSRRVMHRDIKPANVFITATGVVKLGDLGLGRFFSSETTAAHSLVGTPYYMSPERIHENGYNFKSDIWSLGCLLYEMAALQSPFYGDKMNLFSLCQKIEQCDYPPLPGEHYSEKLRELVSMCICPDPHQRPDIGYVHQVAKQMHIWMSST
Sequence of EPHA4 (human) (P54764 whole entry, looked up): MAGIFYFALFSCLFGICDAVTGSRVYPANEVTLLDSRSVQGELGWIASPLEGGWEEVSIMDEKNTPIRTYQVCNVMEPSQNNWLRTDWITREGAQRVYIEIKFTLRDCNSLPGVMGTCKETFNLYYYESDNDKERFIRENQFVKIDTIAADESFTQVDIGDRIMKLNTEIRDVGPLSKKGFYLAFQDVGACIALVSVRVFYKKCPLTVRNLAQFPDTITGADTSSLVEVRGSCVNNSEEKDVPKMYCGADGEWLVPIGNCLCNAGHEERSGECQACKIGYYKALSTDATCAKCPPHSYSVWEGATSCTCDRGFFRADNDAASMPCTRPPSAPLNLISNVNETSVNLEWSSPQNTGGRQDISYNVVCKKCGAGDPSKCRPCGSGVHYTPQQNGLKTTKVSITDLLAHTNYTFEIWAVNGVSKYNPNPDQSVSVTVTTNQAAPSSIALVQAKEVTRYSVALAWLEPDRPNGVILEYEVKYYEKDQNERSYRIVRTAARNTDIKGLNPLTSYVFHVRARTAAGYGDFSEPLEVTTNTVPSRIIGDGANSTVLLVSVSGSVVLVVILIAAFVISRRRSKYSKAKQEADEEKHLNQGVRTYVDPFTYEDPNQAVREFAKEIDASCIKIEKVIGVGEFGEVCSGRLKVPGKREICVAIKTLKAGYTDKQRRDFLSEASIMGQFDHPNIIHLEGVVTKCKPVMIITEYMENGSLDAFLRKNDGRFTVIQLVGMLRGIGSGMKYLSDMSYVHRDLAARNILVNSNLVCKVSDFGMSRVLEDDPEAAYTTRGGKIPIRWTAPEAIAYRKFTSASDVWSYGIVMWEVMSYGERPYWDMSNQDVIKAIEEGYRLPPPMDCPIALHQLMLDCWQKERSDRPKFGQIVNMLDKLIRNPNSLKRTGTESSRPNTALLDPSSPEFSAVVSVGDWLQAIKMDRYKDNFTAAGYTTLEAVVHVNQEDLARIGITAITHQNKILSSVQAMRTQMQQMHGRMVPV
Sequence of PHKG1 (human) (Q16816 whole entry, looked up): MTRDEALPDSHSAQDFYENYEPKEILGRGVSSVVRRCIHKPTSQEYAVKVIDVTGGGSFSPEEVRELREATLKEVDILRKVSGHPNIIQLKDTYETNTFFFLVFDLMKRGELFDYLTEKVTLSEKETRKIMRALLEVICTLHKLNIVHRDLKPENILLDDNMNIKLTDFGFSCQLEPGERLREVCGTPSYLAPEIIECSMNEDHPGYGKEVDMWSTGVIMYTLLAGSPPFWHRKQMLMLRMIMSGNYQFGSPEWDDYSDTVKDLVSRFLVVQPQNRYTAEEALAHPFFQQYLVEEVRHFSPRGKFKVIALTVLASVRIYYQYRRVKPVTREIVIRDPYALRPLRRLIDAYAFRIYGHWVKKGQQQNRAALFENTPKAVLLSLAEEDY
Sequence of CAMKK2 (human) (Q96RR4 whole entry, looked up): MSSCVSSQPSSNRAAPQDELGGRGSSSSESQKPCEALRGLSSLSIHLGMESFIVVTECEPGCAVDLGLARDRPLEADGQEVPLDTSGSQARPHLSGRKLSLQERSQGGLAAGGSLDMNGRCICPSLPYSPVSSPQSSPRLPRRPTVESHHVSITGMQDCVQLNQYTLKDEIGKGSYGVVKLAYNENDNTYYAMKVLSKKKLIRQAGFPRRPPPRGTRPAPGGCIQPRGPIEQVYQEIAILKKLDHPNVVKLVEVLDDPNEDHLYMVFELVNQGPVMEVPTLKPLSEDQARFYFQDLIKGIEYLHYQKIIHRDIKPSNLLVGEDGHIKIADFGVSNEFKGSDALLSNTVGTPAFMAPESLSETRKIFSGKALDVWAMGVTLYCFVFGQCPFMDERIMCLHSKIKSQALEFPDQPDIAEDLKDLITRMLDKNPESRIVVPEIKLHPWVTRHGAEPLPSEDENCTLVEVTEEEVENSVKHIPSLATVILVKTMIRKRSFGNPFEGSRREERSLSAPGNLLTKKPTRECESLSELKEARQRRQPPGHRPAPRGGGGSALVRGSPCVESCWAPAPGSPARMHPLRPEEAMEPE
Sequence of JAK2 JH1 JH2 (human) (O60674 whole entry, looked up): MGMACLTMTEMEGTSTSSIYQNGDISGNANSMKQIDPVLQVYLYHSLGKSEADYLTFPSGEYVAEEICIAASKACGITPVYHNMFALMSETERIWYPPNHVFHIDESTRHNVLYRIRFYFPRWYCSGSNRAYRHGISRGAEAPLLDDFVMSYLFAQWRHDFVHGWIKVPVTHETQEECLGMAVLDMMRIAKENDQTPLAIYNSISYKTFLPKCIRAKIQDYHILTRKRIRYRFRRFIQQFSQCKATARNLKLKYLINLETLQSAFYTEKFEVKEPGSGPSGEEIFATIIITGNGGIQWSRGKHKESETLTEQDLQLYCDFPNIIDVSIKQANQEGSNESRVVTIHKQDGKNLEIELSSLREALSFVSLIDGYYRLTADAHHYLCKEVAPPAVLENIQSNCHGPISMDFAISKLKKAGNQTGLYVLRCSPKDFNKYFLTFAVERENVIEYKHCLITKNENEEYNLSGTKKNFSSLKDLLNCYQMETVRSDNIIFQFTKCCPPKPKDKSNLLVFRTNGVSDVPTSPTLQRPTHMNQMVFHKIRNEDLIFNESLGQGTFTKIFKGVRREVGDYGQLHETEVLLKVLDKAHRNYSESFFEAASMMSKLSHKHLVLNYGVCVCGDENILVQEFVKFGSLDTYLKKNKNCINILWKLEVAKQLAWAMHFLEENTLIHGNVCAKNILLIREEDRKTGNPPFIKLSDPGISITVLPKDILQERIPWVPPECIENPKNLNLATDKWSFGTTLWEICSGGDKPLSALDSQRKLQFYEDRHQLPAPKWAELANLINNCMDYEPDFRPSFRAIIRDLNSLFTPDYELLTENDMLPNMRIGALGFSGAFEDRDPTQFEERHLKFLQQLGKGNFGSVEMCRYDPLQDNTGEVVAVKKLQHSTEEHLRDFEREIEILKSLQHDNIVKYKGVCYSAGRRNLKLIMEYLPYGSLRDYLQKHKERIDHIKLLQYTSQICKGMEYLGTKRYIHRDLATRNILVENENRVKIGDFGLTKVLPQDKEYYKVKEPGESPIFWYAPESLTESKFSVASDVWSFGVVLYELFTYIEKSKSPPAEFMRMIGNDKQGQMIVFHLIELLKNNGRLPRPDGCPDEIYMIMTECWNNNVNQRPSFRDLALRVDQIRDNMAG
Sequence of MST4 (human) (Q9P289 whole entry, looked up): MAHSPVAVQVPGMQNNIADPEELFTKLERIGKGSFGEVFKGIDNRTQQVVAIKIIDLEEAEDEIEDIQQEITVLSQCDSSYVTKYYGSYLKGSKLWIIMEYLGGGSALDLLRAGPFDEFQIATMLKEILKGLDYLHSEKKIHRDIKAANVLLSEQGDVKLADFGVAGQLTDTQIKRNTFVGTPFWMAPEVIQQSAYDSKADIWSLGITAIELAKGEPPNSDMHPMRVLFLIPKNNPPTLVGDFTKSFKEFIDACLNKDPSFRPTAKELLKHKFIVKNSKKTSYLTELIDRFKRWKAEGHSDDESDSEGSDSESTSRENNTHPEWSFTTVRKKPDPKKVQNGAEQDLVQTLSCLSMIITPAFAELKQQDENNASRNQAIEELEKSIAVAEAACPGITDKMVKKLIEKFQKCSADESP

COc1cc(C(=O)N2CCOCC2)c(F)cc1Nc1ncc(C(F)(F)F)c(NC2CC2)n1
residual activity (BRSK1 (human); compound 1.0 µM): 85%
residual activity (BRSK1 (human); compound 10.0 µM): 69%
residual activity (BTK (human)): 115%
residual activity (CAMKK2 (human); compound 1.0 µM): 40%
residual activity (CAMKK2 (human); compound 10.0 µM): 10%
residual activity (CDK2 CCNA2 (human); compound 1.0 µM): 94%
residual activity (CDK2 CCNA2 (human); compound 10.0 µM): 72%
residual activity (CSK (human); compound 1.0 µM): 102%
residual activity (CSK (human); compound 10.0 µM): 101%
residual activity (CaMK1 (human); compound 1.0 µM): 92%
residual activity (CaMK1 (human); compound 10.0 µM): 51%
residual activity (DYRK2 (human); compound 1.0 µM): 40%
residual activity (DYRK2 (human); compound 10.0 µM): 9%
residual activity (EPHA2 (human); compound 1.0 µM): 81%
residual activity (EPHA2 (human); compound 10.0 µM): 93%
residual activity (EPHA4 (human); compound 1.0 µM): 86%
residual activity (EPHA4 (human); compound 10.0 µM): 98%
residual activity (EPHB2 (human); compound 1.0 µM): 92%
residual activity (EPHB2 (human); compound 10.0 µM): 97%
residual activity (ERBB4 (human); compound 1.0 µM): 74%
residual activity (ERBB4 (human); compound 10.0 µM): 65%
residual activity (HIPK3 (human)): 101%
residual activity (INSR (human); compound 1.0 µM): 50%
residual activity (INSR (human); compound 10.0 µM): 3%
residual activity (INSRR (human); compound 1.0 µM): 84%
residual activity (INSRR (human); compound 10.0 µM): 67%
residual activity (JAK2 JH1 JH2 (human); compound 1.0 µM): 79%
residual activity (JAK2 JH1 JH2 (human); compound 10.0 µM): 52%
residual activity (LCK (mouse)): 102%
residual activity (MAP2K1 (human); compound 1.0 µM): 95%
residual activity (MAP2K1 (human); compound 10.0 µM): 81%
residual activity (MAPK15 (human); compound 1.0 µM): 81%
residual activity (MAPK15 (human); compound 10.0 µM): 28%
residual activity (MAPKAPK2 (human); compound 1.0 µM): 102%
residual activity (MAPKAPK2 (human); compound 10.0 µM): 97%
residual activity (MARK1 (human); compound 1.0 µM): 88%
residual activity (MARK1 (human); compound 10.0 µM): 85%
residual activity (MARK2 (human); compound 1.0 µM): 100%
residual activity (MARK2 (human); compound 10.0 µM): 81%
residual activity (MINK1 (human); compound 1.0 µM): 124%
residual activity (MINK1 (human); compound 10.0 µM): 109%
residual activity (MKNK1 (human); compound 1.0 µM): 74%
residual activity (MKNK1 (human); compound 10.0 µM): 26%
residual activity (MST4 (human); compound 1.0 µM): 89%
residual activity (MST4 (human); compound 10.0 µM): 87%
residual activity (NEK2 (human); compound 1.0 µM): 97%
residual activity (NEK2 (human); compound 10.0 µM): 72%
residual activity (NEK6 (human); compound 1.0 µM): 112%
residual activity (NEK6 (human); compound 10.0 µM): 90%
residual activity (NUAK1 (human); compound 1.0 µM): 41%
residual activity (NUAK1 (human); compound 10.0 µM): 9%
residual activity (PAK7 (human); compound 1.0 µM): 94%
residual activity (PAK7 (human); compound 10.0 µM): 79%
residual activity (PHKG1 (human); compound 1.0 µM): 45%
residual activity (PHKG1 (human); compound 10.0 µM): 8%
residual activity (PRKAA1 or PRKAA2 (rat)): 70%
residual activity (PRKACA (human)): 102%
residual activity (PRKCA (human); compound 1.0 µM): 96%
residual activity (PRKCA (human); compound 10.0 µM): 101%
residual activity (RIPK2 (human); compound 1.0 µM): 94%
residual activity (RIPK2 (human); compound 10.0 µM): 79%
residual activity (RPS6KA5 KD1 KD2 (human); compound 1.0 µM): 85%
residual activity (RPS6KA5 KD1 KD2 (human); compound 10.0 µM): 65%
residual activity (SRPK1 (human); compound 1.0 µM): 84%
residual activity (SRPK1 (human); compound 10.0 µM): 69%
